Source: US20250129104A1, “7H-PYRROLO[2,3-D]PYRIMIDINES AND PREPARATION AND USES THEREOF” (BioSplice Therapeutics, Inc., priority 2021, published 2025)

Each molecule was assayed against recombinant DYRK1A kinase (Homo sapiens (Human), UniProt Q13627) (assay: DYRK1A kinase assay (Ser/Thr 18 peptide Z-lyte FRET assay)). Conditions: DYRK1A kinase activity; 15 μM ATP, 1 h room temperature; method text calls the value IC50.
Format: biochemical
Outline: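 FRET Z-lyte read-out (coumarin/fluorescein ratio, % phosphorylation) after 1 h development; IC50 from non-linear curve fit. Reaction: 0.25 μg/mL recombinant human DYRK1A, Ser/Thr 18 peptide 4 μM, ATP 15 μM, compound in 11-point 1:3 series from 10 μM, 1 h, room temperature, duplicate wells.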

**Q.** With `CC(C)Oc1nc(N[C@H]2CC[C@@](C)(O)CC2)nc2[nH]cc(-c3ccn4nccc4c3)c12` [Compound 2220, cis-4-((4-Isopropoxy-5-(pyrazolo[1,5-a]pyridin-5-yl)-7H-pyrrolo[2,3-d]pyrimidin-2-yl)amino)-1-methylcyclohexan-1-ol] as the molecule, how does the EC50 read?
**A.** 66.1 nM

**Q.** For `FC(F)CO[C@H]1CC[C@@H](Nc2ncc3c(-c4ccn5nccc5n4)c[nH]c3n2)CC1` [Compound 2222, N-(cis-4-(2,2-Difluoroethoxy)cyclohexyl)-5-(pyrazolo[1,5-a]pyrimidin-5-yl)-7H-pyrrolo[2,3-d]pyrimidin-2-amine], which EC50 is on record?
**A.** 5.8 nM

**Q.** Which EC50 does the source give for `COc1nc(NC2CCOCC2)nc2[nH]cc(-c3ccn4nccc4n3)c12` [Compound 2224, 4-Methoxy-5-(pyrazolo[1,5-a]pyrimidin-5-yl)-N-(tetrahydro-2H-pyran-4-yl)-7H-pyrrolo[2,3-d]pyrimidin-2-amine] here?
**A.** 10.7 nM

**Q.** How did the EC50 turn out when `COCCO[C@H]1CC[C@@H](Nc2ncc3c(-c4ccc5ncccc5c4)c[nH]c3n2)CC1` [Compound 2226, N-(cis-4-(2-Methoxyethoxy)cyclohexyl)-5-(quinolin-6-yl)-7H-pyrrolo[2,3-d]pyrimidin-2-amine] was run?
**A.** 6.2 nM

**Q.** Which EC50 does the source give for `COc1nc(NC2CCC(F)(F)CC2)nc2[nH]cc(-c3ccc4ncccc4c3)c12` [Compound 2227, N-(4,4-Difluorocyclohexyl)-4-methoxy-5-(quinolin-6-yl)-7H-pyrrolo[2,3-d]pyrimidin-2-amine] here?
**A.** 175 nM

**Q.** With `C[C@]1(O)CC[C@@H](Nc2ncc3c(-c4ccc5nccnc5c4)c[nH]c3n2)CC1` [Compound 2228, cis-1-Methyl-4-((5-(quinoxalin-6-yl)-7H-pyrrolo[2,3-d]pyrimidin-2-yl)amino)cyclohexan-1-ol] as the molecule, how does the EC50 read?
**A.** 2.6 nM

**Q.** For `OCCO[C@H]1CC[C@@H](Nc2ncc3c(-c4ccc5nccnc5c4)c[nH]c3n2)CC1` [Compound 2229, 2-((cis-4-((5-(Quinoxalin-6-yl)-7H-pyrrolo[2,3-d]pyrimidin-2-yl)amino)cyclohexyl)oxy)ethan-1-ol], which EC50 is on record?
**A.** 2.6 nM

**Q.** Which EC50 does the source give for `COc1nc(NC2CCC(F)(F)CC2)nc2[nH]cc(-c3ccc4nccnc4c3)c12` [Compound 2230, N-(4,4-Difluorocyclohexyl)-4-methoxy-5-(quinoxalin-6-yl)-7H-pyrrolo[2,3-d]pyrimidin-2-amine] here?
**A.** 4.5 nM

**Q.** `COc1nc(N[C@H]2CC[C@@](C)(O)CC2)nc2[nH]cc(-c3ccc4nccnc4c3)c12` [Compound 2231, cis-4-((4-Methoxy-5-(quinoxalin-6-yl)-7H-pyrrolo[2,3-d]pyrimidin-2-yl)amino)-1-methylcyclohexan-1-ol] was tested. Which EC50 did it give?
**A.** 2.2 nM

**Q.** Which EC50 does the source give for `CCOc1nc(N[C@H]2CC[C@@H](O)CC2)nc2[nH]cc(-c3ccc4nccnc4c3)c12` [Compound 2232, cis-4-((4-Ethoxy-5-(quinoxalin-6-yl)-7H-pyrrolo[2,3-d]pyrimidin-2-yl)amino)cyclohexan-1-ol] here?
**A.** 1.3 nM

**Q.** How did the EC50 turn out when `COc1nc(N[C@H]2CC[C@@](C)(O)CC2)nc2[nH]cc(-c3ccc4nccn4c3)c12` [Compound 2233, cis-4-((5-(Imidazo[1,2-a]pyridin-6-yl)-4-methoxy-7H-pyrrolo[2,3-d]pyrimidin-2-yl)amino)-1-methylcyclohexan-1-ol] was run?
**A.** 1.6 nM

**Q.** `C[C@]1(O)CC[C@@H](Nc2ncc3c(-c4ccn5nccc5c4)c[nH]c3n2)CC1` [Compound 2234, cis-1-Methyl-4-((5-(pyrazolo[1,5-a]pyridin-5-yl)-7H-pyrrolo[2,3-d]pyrimidin-2-yl)amino)cyclohexan-1-ol] was tested. Which EC50 did it give?
**A.** 5.9 nM

**Q.** With `C[C@]1(O)CC[C@@H](Nc2ncc3c(-c4ccc5nccn5c4)c[nH]c3n2)CC1` [Compound 2235, cis-4-((5-(Imidazo[1,2-a]pyridin-6-yl)-7H-pyrrolo[2,3-d]pyrimidin-2-yl)amino)-1-methylcyclohexan-1-ol] as the molecule, how does the EC50 read?
**A.** 7.4 nM

**Q.** For `C[C@]1(O)CC[C@H](Nc2ncc3c(-c4ccc5nccn5c4)c[nH]c3n2)CC1` [Compound 2236, trans-4-((5-(Imidazo[1,2-a]pyridin-6-yl)-7H-pyrrolo[2,3-d]pyrimidin-2-yl)amino)-1-methylcyclohexan-1-ol], which EC50 is on record?
**A.** 15 nM

**Q.** How did the EC50 turn out when `C[C@]1(O)CC[C@H](Nc2ncc3c(-c4cc(F)c5nccn5c4)c[nH]c3n2)CC1` [Compound 2237, trans-4-((5-(8-Fluoroimidazo[1,2-a]pyridin-6-yl)-7H-pyrrolo[2,3-d]pyrimidin-2-yl)amino)-1-methylcyclohexan-1-ol] was run?
**A.** 7.9 nM

**Q.** With `Cc1nc2ccc(-c3c[nH]c4nc(N[C@H]5CC[C@@](C)(O)CC5)ncc34)nc2n1CC(F)F` [Compound 2239, cis-4-((5-(3-(2,2-Difluoroethyl)-2-methyl-3H-imidazo[4,5-b]pyridin-5-yl)-7H-pyrrolo[2,3-d]pyrimidin-2-yl)amino)-1-methylcyclohexan-1-ol] as the molecule, how does the EC50 read?
**A.** 6.9 nM

**Q.** For `COc1nc(NCC(C)(C)F)nc2[nH]cc(-c3ccc4nccn4c3)c12` [Compound 2240, N-(2-Fluoro-2-methylpropyl)-5-(imidazo[1,2-a]pyridin-6-yl)-4-methoxy-7H-pyrrolo[2,3-d]pyrimidin-2-amine], which EC50 is on record?
**A.** 7.9 nM

**Q.** How did the EC50 turn out when `COc1nc(NC2CCC(F)(F)CC2)nc2[nH]cc(-c3ccc4nccn4c3)c12` [Compound 2241, N-(4,4-Difluorocyclohexyl)-5-(imidazo[1,2-a]pyridin-6-yl)-4-methoxy-7H-pyrrolo[2,3-d]pyrimidin-2-amine] was run?
**A.** 26.9 nM

**Q.** For `[2H]C([2H])([2H])O[C@H]1CC[C@@H](Nc2nc(OC)c3c(-c4ccc5nccn5c4)c[nH]c3n2)CC1` [Compound 2242, 5-(Imidazo[1,2-a]pyridin-6-yl)-4-methoxy-N-(cis-4-(methoxy-d3)cyclohexyl)-7H-pyrrolo[2,3-d]pyrimidin-2-amine], which EC50 is on record?
**A.** 28.4 nM

**Q.** `COc1nc(N[C@H]2CC[C@H](OC(F)F)CC2)nc2[nH]cc(-c3ccc4nccn4c3)c12` [Compound 2245, N-(trans-4-(Difluoromethoxy)cyclohexyl)-5-(imidazo[1,2-a]pyridin-6-yl)-4-methoxy-7H-pyrrolo[2,3-d]pyrimidin-2-amine] was tested. Which EC50 did it give?
**A.** 29.6 nM

**Q.** `COc1nc(N[C@H]2CC[C@@H](OC(F)(F)F)CC2)nc2[nH]cc(-c3ccc4nccn4c3)c12` [Compound 2246, 5-(Imidazo[1,2-a]pyridin-6-yl)-4-methoxy-N-(cis-4-(trifluoromethoxy)cyclohexyl)-7H-pyrrolo[2,3-d]pyrimidin-2-amine] was tested. Which EC50 did it give?
**A.** 132 nM

**Q.** `CCOc1nc(N[C@H]2CC[C@@](C)(O)CC2)nc2[nH]cc(-c3ccc4nccn4c3)c12` [Compound 2254, cis-4-((4-Ethoxy-5-(imidazo[1,2-a]pyridin-6-yl)-7H-pyrrolo[2,3-d]pyrimidin-2-yl)amino)-1-methylcyclohexan-1-ol] was tested. Which EC50 did it give?
**A.** 25.8 nM

**Q.** With `COc1nc(NCC(C)(C)F)nc2[nH]cc(-c3cc(F)c4nccn4c3)c12` [Compound 2255, N-(2-Fluoro-2-methylpropyl)-5-(8-fluoroimidazo[1,2-a]pyridin-6-yl)-4-methoxy-7H-pyrrolo[2,3-d]pyrimidin-2-amine] as the molecule, how does the EC50 read?
**A.** 19 nM

**Q.** `[2H]C([2H])([2H])O[C@H]1CC[C@@H](Nc2nc(OC)c3c(-c4cc(F)c5nccn5c4)c[nH]c3n2)CC1` [Compound 2256, 5-(8-Fluoroimidazo[1,2-a]pyridin-6-yl)-4-methoxy-N-(cis-4-(methoxy-d3)cyclohexyl)-7H-pyrrolo[2,3-d]pyrimidin-2-amine] was tested. Which EC50 did it give?
**A.** 15 nM

**Q.** How did the EC50 turn out when `COc1nc(N[C@H]2CC[C@@H](OC(F)F)CC2)nc2[nH]cc(-c3cc(F)c4nccn4c3)c12` [Compound 2258, N-(cis-4-(Difluoromethoxy)cyclohexyl)-5-(8-fluoroimidazo[1,2-a]pyridin-6-yl)-4-methoxy-7H-pyrrolo[2,3-d]pyrimidin-2-amine] was run?
**A.** 193 nM

**Q.** For `COc1nc(N[C@H]2CC[C@@H](OC(F)(F)F)CC2)nc2[nH]cc(-c3cc(F)c4nccn4c3)c12` [Compound 2260, 5-(8-Fluoroimidazo[1,2-a]pyridin-6-yl)-4-methoxy-N-(cis-4-(trifluoromethoxy)cyclohexyl)-7H-pyrrolo[2,3-d]pyrimidin-2-amine], which EC50 is on record?
**A.** 245 nM

**Q.** With `COc1nc(NC2CCC(F)(F)CC2)nc2[nH]cc(-c3cnc4nccn4c3)c12` [Compound 2268, N-(4,4-Difluorocyclohexyl)-5-(imidazo[1,2-a]pyrimidin-6-yl)-4-methoxy-7H-pyrrolo[2,3-d]pyrimidin-2-amine] as the molecule, how does the EC50 read?
**A.** 9.9 nM

**Q.** How did the EC50 turn out when `COc1nc(NCC(C)(C)F)nc2[nH]cc(-c3cnc4nc(C)n(CC(F)F)c4c3)c12` [Compound 2269, 5-(1-(2,2-Difluoroethyl)-2-methyl-1H-imidazo[4,5-b]pyridin-6-yl)-N-(2-fluoro-2-methylpropyl)-4-methoxy-7H-pyrrolo[2,3-d]pyrimidin-2-amine] was run?
**A.** 77.2 nM

**Q.** `COC[C@@H](C)Nc1nc(OC)c2c(-c3cnc4nc(C)n(CC(F)F)c4c3)c[nH]c2n1` [Compound 2271, (R)-5-(1-(2,2-Difluoroethyl)-2-methyl-1H-imidazo[4,5-b]pyridin-6-yl)-4-methoxy-N-(1-methoxypropan-2-yl)-7H-pyrrolo[2,3-d]pyrimidin-2-amine] was tested. Which EC50 did it give?
**A.** 112 nM

**Q.** `COc1nc(NC2CCC(F)(F)CC2)nc2[nH]cc(-c3cnc4nc(C)n(CC(F)F)c4c3)c12` [Compound 2272, N-(4,4-Difluorocyclohexyl)-5-(1-(2,2-difluoroethyl)-2-methyl-1H-imidazo[4,5-b]pyridin-6-yl)-4-methoxy-7H-pyrrolo[2,3-d]pyrimidin-2-amine] was tested. Which EC50 did it give?
**A.** 62.2 nM

**Q.** `COc1nc(NCC(C)(C)F)nc2[nH]cc(-c3ccc4nc(C)n(CC(F)F)c4n3)c12` [Compound 2276, 5-(3-(2,2-Difluoroethyl)-2-methyl-3H-imidazo[4,5-b]pyridin-5-yl)-N-(2-fluoro-2-methylpropyl)-4-methoxy-7H-pyrrolo[2,3-d]pyrimidin-2-amine] was tested. Which EC50 did it give?
**A.** 256 nM

**Q.** `COC[C@@H](C)Nc1nc(OC)c2c(-c3ccc4nc(C)n(CC(F)F)c4n3)c[nH]c2n1` [Compound 2278, (R)-5-(3-(2,2-Difluoroethyl)-2-methyl-3H-imidazo[4,5-b]pyridin-5-yl)-4-methoxy-N-(1-methoxypropan-2-yl)-7H-pyrrolo[2,3-d]pyrimidin-2-amine] was tested. Which EC50 did it give?
**A.** 1000 nM
